Here are results for 13 molecules from patent US9872514B2, “Compounds, compositions, and methods for reducing or eliminating bitter taste” (Chromocell Corporation, priority 2010, dated 2018).

Like-named read-outs stand apart in the source and are kept apart here.

Common to all, as to assay type: in vivo, humans
Assay [1] relates to bitter taste of KCl in solid-matrix foodstuffs. The experiment in a line: Latin Square-2AFC chew and spit test of KCl solid turkey. Particulars: Homo sapiens, 1.6% KCl (80% KCl:20% NaCl marinade), dash = none of the tested conc. The procedure:
The effect of the test compounds on the perception of the bitter taste of KCl in solid-matrix foodstuffs in humans was evaluated using a “chew and spit” test using a Latin Square-2AFC testing method as follows.
Two types of marinades containing Prague powder, sugar, Evian™ water, KCl and/or NaCl in water were prepared. One marinade contained 80% KCl, 20% NaCl (by weight) (i.e., marinade concentration of […]). A second marinade contained 60% KCl:40% NaCl (by weight) (i.e., marinade concentration of 1.2% KCl). Compound stock solutions were prepared by dissolving an amount of test compound in ethanol or water (depending on the solubility of the compound) to create a 5 mg/mL stock compound solution. Enough ethanol was added to each stock compound solution to generate a final stock compound solution containing 1% ethanol. The marinade, the stock compound solution and ground turkey were added to a mixing bowl, mixed at low-speed for about 2 minutes, and then mixed at high-speed for about 5 minutes. The marinated turkey mixture was divided into one pound aliquots, vacuum sealed into food saver bags, and allowed to marinate for about 2 hours in a refrigerator. The vacuum-sealed turkey was then cooked in an about 86° C. water bath for about 30 minutes. If after about 30 minutes, the internal turkey temperature had not reached about 170° F., the vacuum-sealed turkey was cooked for about an additional 5 minutes. The vacuum-sealed turkey was then refrigerated for about two weeks before taste testing. KCl standards were similarly prepared by dissolving KCl in the marinade without adding any test compound during the turkey preparation.
The panelists tasted portions by chewing and spitting. In order to eliminate any effects of sample order, a complete Latin Square design was employed so that each possible order of sample presentation was utilized across subjects. Each simple was tested in several discrete taste test experiments. Panelists were asked to rinse with water, cat a cracker, and wait about 10 minutes between samples. In each case, the panelists were asked to choose the sample that tasted less bitter.

The test system of assay [2] is bitter taste of KCl foodstuff slurries. The experiment in a line: Two-alternative forced choice (2AFC) sip and spit test of KCl turkey foodstuff slurries. Particulars: Homo sapiens, turkey slurry, 1.6% KCl, 2AFC vs KCl slurry standard, dash = none of the tested conc. The procedure: Edible KCl food compositions (“KCl test foodstuff slurries”) were prepared as follows. Dehydrated, salt-free turkey powder was weighed and mixed with various amounts of KCl and/or NaCl and then solubilized with boiling water to create a homogenized solubilized turkey slurry. Varying amounts of the test compounds were dissolved in an amount of ethanol or water (depending on the solubility of the compound) to create a 5 mg/mL stock compound solution. An amount of this stock compound solution was then added to the turkey slurry. Enough EtOH is then added to the resulting stock compound/turkey slurry so that the slurry contains 1% EtOH. The slurry was again homogenized by boiling and mixing and allowed to cool to yield the final KCl test foodstuff slurry for taste testing KCl foodstuff slurry standards were similarly prepared without any test compound.
The effect of the test compounds on the perception of the bitter taste of KCl foodstuff slurries in humans was evaluated using a two-alternative-forced-choice “sip and spit” test as follows.
(§1) In a blind taste test, panelists received two portions of turkey slurry—one portion being the KCl foodstuff slurry standard and the other being one of the KCl test foodstuff slurries (each prepared as described in Example 5). The panelists tasted each of the portions by sipping and spitting. Each sample was tested in 2-4 discrete taste test experiments. Panelists were asked to rinse with water, eat a cracker, and wait about 10 minutes between samples. In each case, the panelists were asked to compare the bitter taste of the two turkey samples to each other (i.e., panelists were asked to indicate which sample was less bitter).

The test system of assay [3] is bitter taste of an aqueous solution of KCl. The experiment in a line: Sip and spit bitterness rating of aqueous KCl test solutions. Particulars: Homo sapiens, aqueous KCl 4.85 g/L, 1% EtOH, bitterness scored 0-15 vs KCl standard, dash = none of the tested conc. Here is the method: An amount of this stock compound solution is then added to an aqueous KCl solution. Enough EtOH is then added to the resulting stock compound/KCl solution so that the final KCl test solution contains 1% EtOH. KCl solution standards were similarly prepared by dissolving various amounts of KCl in water and ethanol without adding any test compound.
The effect of the test compounds an the perception of the bitter taste of an aqueous solution of KCl in humans was evaluated using a “sip and spit” test as follows.
(§2) A set of KCl solution standards was developed and each standard solution was assigned a bitterness taste score of 0-15 (corresponding to aqueous KCl concentrations of 0 mM-120 mM). Panelists were trained to recognize these standards. In addition, before each day of testing, panelists were tested to see if they could determine differences in taste between the standard solutions. If a panelist was unable to recognize a change in KCl concentration, they were excluded from the panel for that day.
(§3) In a blind taste test, panelists were asked to compare the bitter taste of a small quantity (e.g., 8 ml) of each of the KCl Test Solutions to the taste of a KCl solution standard, without swallowing (see, e.g., Table 1). Specifically, panelists were asked to rate the bitterness of each KCl Test Solution on a scale of 0-15 using the same scale developed for the KCl solution standards. Each sample was tested in 2-4 discrete taste test experiments. Panelists were asked to rinse with water, eat a cracker, and wait approximately 10 minutes between samples.

In assay [4] the test system is bitter taste of an aqueous solution of potassium lactate. The experiment in a line: Sip and spit bitterness rating of aqueous potassium lactate test solutions. To be noted: Homo sapiens, aqueous potassium lactate 41 g/L, 1% EtOH, dash = none of the tested conc. Here is the method:
as §2, §3
Edible potassium lactate solution compositions (“potassium lactate test solutions”) were prepared by first dissolving varying amounts of the test compounds in an amount of ethanol or water (depending on the solubility of the compound) to create a 5 mg/mL stock compound solution. An amount of this stock compound solution is then added to an aqueous potassium lactate solution. Enough EtOH is then added to the resulting stock compound/potassium lactate solution so that the final potassium lactate test solution contains 1% EtOH. Potassium lactate solution standards were similarly prepared by dissolving various amounts of potassium lactate in water and ethanol without adding any test compound.
The effect of the test compounds on the perception of the bitter taste of an aqueous solution of potassium lactate in humans was evaluated using the “sip and spit” test described in Example 2.

The test system of assay [5] is bitter taste of an aqueous solution of KCl. The experiment in a line: Latin Square-2AFC sip and spit test of aqueous KCl solutions. To be noted: Homo sapiens, aqueous KCl 4.85 g/L, Latin Square-2AFC vs KCl standard, dash = none of the tested conc. The procedure:
The effect of the test compounds on the perception of the bitter taste of an aqueous solution of KCl in humans was evaluated using a “sip and spit” test using a Latin Square-2AFC testing method as follows.
In a blind taste test, panelists were asked to compare the bitter taste of a small quantity (e.g., 8 ml) of a KCl Test Solution to the taste of a KCl solution standard (prepared as described in Example 1), without swallowing. NaCl solution standards were prepared as described in Example 1.
In order to eliminate any effects of sample order, a complete Latin Square design was employed so that each possible order of sample presentation was utilized across subjects. Each sample was tested in several discrete taste test experiments. Panelists were asked to rinse with water, eat a cracker, and wait about 10 minutes between samples. In each case, the panelists were asked to choose the sample which tasted “less bitter.” Illustrative results of the aqueous solution Latin Square-2AFC testing are presented in Table 5.

The test system of assay [6] is bitter taste of potassium lactate foodstuffs. Put plainly: 2AFC sip and spit test of potassium lactate turkey foodstuff slurries. To be noted: turkey slurry, 4.5% potassium lactate, 2AFC vs standard; dash = none of the tested conc. The procedure: as §1
Edible potassium lactate food compositions (“potassium lactate test foodstuff slurries”) were prepared as follows. Dehydrated, salt-free turkey powder was weighed and mixed with various amounts of potassium lactate and/or sodium lactate and then solubilized with boiling water to create a homogenized solubilized turkey slurry. Varying amounts of the test compounds were dissolved in an amount of ethanol or water depending on the solubility of the compound) to create a 5 mg/mL stock compound solution. An amount of this stock compound solution was then added to the turkey slurry. Enough EtOH is then added to the resulting stock compound/turkey slurry so that the final slurry contains 1% EtOH. The final slurry was again homogenized by boiling and mixing and allowed to cool to yield the final slurry for taste testing. Potassium lactate foodstuff slurry standards were similarly prepared without any test compound.
The effect of the test compounds on the perception of the bitter taste of potassium lactate foodstuffs in humans was evaluated using the two-alternative-forced-choice “sip and spit” test described in Example 6.

[7] abbreviates: read-out: Conc. at Which At Least 50% of Panelist Discerned Decrease in Bitter Taste.
Setting [8] is: read-out: Conc. Where Decrease in Bitter Taste Discerned and p ≦ 0.1.
Setting [9] is: read-out: Conc. Where Decrease in Bitter Taste Was Discerned.
[10] abbreviates: read-out: Conc. at Which At Least 50% of Panelist Discerned Decrease in Bitter Taste and p ≦ 0.1.

Turning to `CCC(=O)OCCC(C)CCC=C(C)C` (centres unmarked) [Compound 10], the minimal effective concentration in assay [1] (setting [7]) amounted to 0.5 µg/mL; in assay [2] (setting [7]) it was 0.1 µg/mL; in assay [3] (setting [8]), 1 µg/mL; in assay [4] (setting [9]) it was 0.1 µg/mL.

Turning to `CC(C)=CCCC(C)CCOC(=O)C(C)C` (centres unmarked) [Compound 11], the minimal effective concentration came out at 10 µg/mL in assay [3] (setting [8]) and 1 µg/mL in assay [5] (setting [7]).

For the molecule `CCC(=O)OC/C=C(\C)CCC=C(C)C` [Compound 22], the minimal effective concentration amounted to 1 µg/mL in assay [3] (setting [8]), 0.25 µg/mL in assay [5] (setting [10]) and 1 µg/mL in assay [4] (setting [8]).

As to `CC(C)=CCC/C(C)=C\CO` [Compound 31], the minimal effective concentration in assay [1] (setting [10]) turned out to be 4 µg/mL; in assay [2] (setting [7]) it was 10 µg/mL; in assay [3] (setting [8]) it was 10 µg/mL; in assay [4] (setting [8]) it was 10 µg/mL.

With `CC(C)=CCC/C(C)=C\COC(=O)C(C)C` [Compound 34], the results for the minimal effective concentration in assay [1] (setting [7]) and in assay [4] (setting [8]) were 2 µg/mL and 1 µg/mL, respectively.

Consider `CC(=O)OC/C=C(\C)CCC[C@H](C)CCC[C@H](C)CCCC(C)C` [Compound 41], for which the minimal effective concentration in assay [1] (setting [10]) turned out to be 2.5 µg/mL; in assay [3] (setting [8]), 10 µg/mL; in assay [3] (setting [9]) it was 10 µg/mL; in assay [5] (setting [10]) it was 1 µg/mL; in assay [4] (setting [9]), 5 µg/mL.

Regarding `O=C1CCc2ccccc2O1` [Compound 53], the minimal effective concentration in assay [3] (setting [8]) is 10 µg/mL; in assay [5] (setting [7]), 1 µg/mL; in assay [4] (setting [8]) it was 10 µg/mL; in assay [4] (setting [9]), 10 µg/mL. Further, in assay [6], the “Conc. at Which At Least 50% of Panelist Discerned Decrease in Bitter Taste” value is listed as 5 ppm.

`OCc1ccc(O)cc1` [Compound 69]: the minimal effective concentration in assay [1] (setting [10]) came to 1 µg/mL; in assay [2] (setting [10]), 10 µg/mL; in assay [3] (setting [8]), 1 µg/mL.

With `CC12CCC(CC1=O)C2(C)C` (centres unmarked) [Compound 74], the minimal effective concentration was 10 µg/mL in assay [1] (setting [10]); 10 µg/mL in assay [2] (setting [7]); 1 µg/mL in assay [5] (setting [10]); 1 µg/mL in assay [4] (setting [8]); 1 µg/mL in assay [4] (setting [9]). In addition, in assay [6], the “Conc. at Which At Least 50% of Panelist Discerned Decrease in Bitter Taste” value came out at 1 ppm.

Turning to `CCC1(O)C2(C)CCC(C2)C1(C)C` (centres unmarked) [Compound 85], the minimal effective concentration amounted to 1 µg/mL in assay [1] (setting [10]); 1 µg/mL in assay [3] (setting [8]); 0.005 µg/mL in assay [5] (setting [7]); 5 µg/mL in assay [4] (setting [8]); 5 µg/mL in assay [4] (setting [9]).

In the case of `COc1ccc2c(=O)cc(-c3ccccc3)oc2c1` [Compound 95], the “Conc. at Which At Least 50% of Panelist Discerned Decrease in Bitter Taste and p ≦ 0.1” value in assay [6] was 10 ppm. For the same molecule, in assay [4] (setting [8]), the minimal effective concentration worked out at 1 µg/mL.

Take `O=Cc1ccc2c(c1)OCO2` [Compound 114]: the minimal effective concentration in assay [5] (setting [10]) was determined as 25 µg/mL.

For `C[C@H]1CC[C@@H](C(C)(C)O)CC2=C1CC[C@@H]2C` [Compound 120], the minimal effective concentration in assay [2] (setting [7]) was 10 µg/mL. For the same molecule, in assay [6], the “Conc. at Which At Least 50% of Panelist Discerned Decrease in Bitter Taste” value was determined as 10 ppm.
